Values quoted from earlier work as cited in Sander's compilation of Henry's law constants (doi:10.1007/978-1-4612-3850-8_1).
“And” between values parts separate entries of the source, which are not always exact repeats. Identical values can stand only once.

Assay: Henry solubility constant Hcp at 293 K (mol/(m3 Pa))
Details: reference: Suntio et al. (1988); cited value

SMILES | Henry solubility constant Hcp at 293 K
CNC(=O)O/N=C/C(C)(C)SC [aldicarb] | 1.9
CC1=CC(=O)CC(C)(C)C1 [3,5,5-trimethyl-2-cyclohexen-1-one] | 1.8
ClC1C(Cl)C(Cl)C(Cl)C(Cl)C1Cl (centres undefined) [γ-1,2,3,4,5,6-hexachlorocyclohexane] | 20
ClC1=C(Cl)[C@]2(Cl)[C@@H]3[C@@H]4C[C@@H]([C@H]5O[C@@H]45)[C@@H]3[C@@]1(Cl)C2(Cl)Cl [dieldrin] | 50
C=CC=O [propenal] | 0.18
ClC(Cl)=C(c1ccc(Cl)cc1)c1ccccc1Cl [o,p'-DDE] | 0.14
ClC1(Cl)C2(Cl)C3(Cl)C4(Cl)C(Cl)(Cl)C5(Cl)C3(Cl)C1(Cl)C5(Cl)C24Cl (centres undefined) [mirex] | 0.00099

Assay: Henry solubility constant Hcp at 298.15 K (mol/(m3 Pa))
Details: reference: Suntio et al. (1988); cited value

SMILES | Henry solubility constant Hcp
Clc1ccc(C(c2ccccc2Cl)C(Cl)Cl)cc1 (centres undefined) [mitotane] | 560
ClC(Cl)=C(c1ccc(Cl)cc1)c1ccc(Cl)cc1 [1,1-dichloro-2,2-bis-(4-chlorophenyl)-ethene] | 0.45
ClC1C(Cl)C(Cl)C(Cl)C(Cl)C1Cl (stereo not drawn) [α-1,2,3,4,5,6-hexachlorocyclohexane] | 1.8
ClC1=C(Cl)[C@]2(Cl)[C@@H]3[C@H]4C[C@H]([C@@H]5O[C@H]45)[C@@H]3[C@@]1(Cl)C2(Cl)Cl [endrin] | 5600
ClC1C(Cl)C(Cl)C(Cl)C(Cl)C1Cl (stereo not drawn) [β-1,2,3,4,5,6-hexachlorocyclohexane] | 56
Clc1ccc(C(c2ccc(Cl)cc2)C(Cl)(Cl)Cl)cc1 [1,1,1-trichloro-2,2-bis-(4-chlorophenyl)-ethane] | 0.17
ClC1=C(Cl)[C@]2(Cl)C3C(Cl)C(Cl)CC3[C@@]1(Cl)C2(Cl)Cl (some centres undefined) [chlordane] | 0.2 and 0.11
